Assay results reported in patent publication US7067653B2, “Porphyrin Based neuton capture agents for cancer therapy” (The Regents of the University of California, priority 2000, dated 2006).

What was measured:
tumor = settings: drugs currently in BNCT clinical trials; cited from earlier work
U-373 MG cells = test: Dark toxicity assay in human glioblastoma U-373 MG cells; type: cell-based; settings: exposure for 24 hours
Description: (§1) In vitro studies using rat 9L gliosarcoma cells, mouse B16 melanoma cells and human U-373MG glioblastoma cells have been performed.
(§2) Human glioblastoma U373 MG and mouse melanoma B16 cells were obtained from ATCC. The rat gliosarcoma line was kindly provided by the UCSF Brain Tumor Research Group. All cells were maintained in log phase monolayer cultures with RPMI 1640 supplemented with 10% fetal bovine and 2 mM glutamine.
(§3) Cells were seeded in 96-well culture plates, allowed to settle and attach for 24–48 hours, and then triplicate wells were exposed to two fold serial dilutions of test compounds at concentrations up to 250 μM. Compounds 4, 6, 10, and the Zn(II) complex of 10 in crystalline form were carefully weighed and dissolved in 100% DMSO to prepare stock solutions; subsequent dilutions were done directly into the culture medium just prior to administration to cells. After short term (2 hours) or long term (24–48 hours) exposure, cells were washed and wells refilled with fresh culture medium. For dark toxicity trials cells were allowed to proliferate for an additional 48–72 hours. For phototoxicity trials, washed cells were irradiated for 10 minutes with broad spectrum (600–700 nm) red light and then returned to an incubator for 48–72 hours.

9L cells = test: Dark toxicity assay in rat 9L gliosarcoma cells; type: cell-based; settings: exposure for 24 hours
Description: as §1, §2, §3

[1] = system: 9L, U-373 MG and B16 cells; test: Phototoxicity assay, broad spectrum (600–700 nm) red light; type: cell-based; settings: irradiation with broad spectrum light 10 minutes
Description: as §2, §3
As observed for the dark toxicity experiments, the corresponding Zn(II) complex […] was about 20-fold less phototoxic. […] As with dark toxicity, B16 cells were more resistant that the other two cell types.

Rat 9L tumor cells = test: Intracellular localization by confocal fluorescence microscopy, 9L cells; type: cell-based; settings: 2 μM, 6 or 24 hours
Description: (§4) Confocal fluorescence microscopy was used to examine the intracellular localization of nido-carboranylporphyrin 4 in live cells. Rat 9L tumor cells and human normal keratinocyte line HaCaT were used in these studies. HaCaT cells were included in these particular experiments because they adhere and spread nicely on glass cover slips, thus facilitating the imaging process. Cells exposed to 2 μM concentration of porphyrin 4 for either 6 or 24 hours were examined at a magnification of 200× for intracellular fluorescence using excitation/emission wavelengths optimized for this type of compound. […] In both cases, 100% of the cells were labeled and the cells exposed to drug for 24 hours were slightly brighter than those exposed for 6 hours. […] No fluorescent signal was detectable in the plasma membranes of isolated individual cells nor in the intercellular junctions of confluent cells.

[2] = system: human normal keratinocyte line HaCaT; test: Intracellular localization by confocal fluorescence microscopy, HaCaT cells; type: cell-based; settings: 2 μM, 6 or 24 hours
Description: as §4

## N[C@@H](Cc1ccc(B(O)O)cc1)C(=O)O [BPA, L-4-dihydroxy-borylphenylalanine]
tumor
  tumor selectivity compared with the carboranylporphyrins (tumor to normal brain ratio): lower selectivities

## disodium mercapto-closo-dodecaborate [BSH]
tumor
  tumor selectivity compared with the carboranylporphyrins (tumor to normal brain ratio): lower selectivities

## meso-tetra[3-(1-methyl-nido-carboranyl)methylphenyl]porphyrin tetrapotassium salt [Compound 10]
U-373 MG cells
  IC50: ~150 µM
9L cells
  IC50: ~150 µM

## meso-tetra[4-(1-methyl-nido-carboranyl)methylphenyl]porphyrin tetrapotassium salt [Compound 4]
[1]; 2 hours exposure
  IC50: 50 µM
[1]; 24 hours exposure
  IC50: 1.5 µM
U-373 MG cells
  IC50: ~150 µM
9L cells
  IC50: ~150 µM
Rat 9L tumor cells; 9L cells
  cells labeled: 100%
Rat 9L tumor cells; live 9L cells
  intracellular localization (fluorescence): predominantly perinuclear
[2]; HaCaT cells
  cells labeled: 100%
[2]; live HaCaT cells
  intracellular localization (fluorescence): predominantly perinuclear
